These are literature values, as cited in patent US20070003628A1, “Nanoparticulate clopidogrel formulations” (Elan Pharma International Limited, priority 2005, published 2007).

Assay in series [1]: not given
This is another data set of the same source.

Structures are written as SMILES. Structures can show the parent of a compound that is named as a salt. Where two headings read alike, the source gives them in different places.

`COC(=O)[C@H](c1ccccc1Cl)N1CCc2sccc2C1` [Clopidogrel bisulfate, methyl (+)-(S)-α-(2-chorophenyl)-6,7-dihydrothieno[3,2-c]pyridine-5(4H)-acetate sulfate (1:1)]: the “rate of a combined end point of cardiovascular death, MI, or stroke, and of cardiovascular death, MI, stroke, or refractory ischemia” value (patients with acute coronary syndrome) is recorded as “decrease the rate”. For the same molecule, the “rate of a combined end point of new ischemic stroke, new MI, and other vascular death” value (recent myocardial infarction, recent stroke or established arterial disease) is “reduce the rate”. The “solubility in ethyl ether” value in series [1] (ethyl ether) is “practically insoluble”. In addition, in series [1] (methanol), the solubility in methanol result is “dissolves freely”. Moreover, in series [1] (methylene chloride), the “solubility in methylene chloride” value is recorded as “dissolves sparingly”. For the same molecule, the solubility in water entry in series [1] (pH 1.0) was “freely soluble”; in series [1] (water at neutral pH), “practically insoluble”.
For `COC(=O)[C@H](c1ccccc1Cl)N1CCc2sccc2C1` [clopidogrel], in series [1] (water, pH not stated), the solubility in water entry was “practically insoluble”.
